Data taken from US8158828B2, “Nuclear receptor binding agents” (priority 2005, dated 2012).
Like-named read-outs stand apart in the source and are kept apart here.

Experiments:
ER-α = molecular target: T1, ER-α (Rattus norvegicus, UniProt P06211); assay: ER-α transactivation, ERE-LUC in COS or 293 cells; assay type: cell-based; set-up: % estardiol activity, ER-α: dose or concentration left out as unconfirmed; settings: for EC50: ER alpha agonists; for IC50: ER alpha antagonists
T1 sequence (P06211 1-600): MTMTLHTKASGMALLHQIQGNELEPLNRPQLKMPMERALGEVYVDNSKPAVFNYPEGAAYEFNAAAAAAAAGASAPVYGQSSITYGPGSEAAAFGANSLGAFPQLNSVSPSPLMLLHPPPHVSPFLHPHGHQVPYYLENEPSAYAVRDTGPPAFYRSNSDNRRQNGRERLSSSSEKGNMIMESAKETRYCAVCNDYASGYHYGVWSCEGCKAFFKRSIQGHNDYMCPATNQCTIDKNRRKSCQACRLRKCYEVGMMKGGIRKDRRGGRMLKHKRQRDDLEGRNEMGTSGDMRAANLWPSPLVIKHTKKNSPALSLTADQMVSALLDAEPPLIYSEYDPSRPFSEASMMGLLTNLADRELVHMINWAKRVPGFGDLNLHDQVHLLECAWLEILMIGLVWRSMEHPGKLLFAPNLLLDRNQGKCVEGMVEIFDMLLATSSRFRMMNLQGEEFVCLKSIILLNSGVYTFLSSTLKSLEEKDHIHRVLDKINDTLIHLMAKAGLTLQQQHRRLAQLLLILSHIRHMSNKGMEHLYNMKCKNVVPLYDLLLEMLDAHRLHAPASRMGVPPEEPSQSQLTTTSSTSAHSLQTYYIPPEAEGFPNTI
Method: FIG. 1: Effects of the indicated compounds on ER-α transactivation. COS or 293 cells plated in DME without phenol red+10% charcoal stripped fetal bovine serum (csFBS) at 90,000 cells per well of 24 well plates were transfected with 0.25 μg ERE-LUC, 0.02 μg CMV-LUC (Renilla) and 25 ng of ER-α by lipofectamine. Twenty four hours after transfection, the cells were treated as indicated in the figure, harvested 48 hrs after transfection and were assayed for firefly and renilla luciferase.
FIG. 5: Effect of the indicated compounds on ER-α transactivation. COS or 293 cells plated in DME without phenol red+10% csFBS at 90,000 cells per well of a 24 well plate were transfected with 0.25 μg ERE-LUC, 0.02 μg CMV-LUC (Renilla) and […] of ER-α by lipofectamine. Twenty four hours after transfection, the cells were treated as indicated in the figure, harvested 48 hrs after transfection and were assayed for firefly and renilla luciferase.
FIG. 9: Effect of the indicated compounds on ER-α transactivation. COS or 293 cells plated in DME without phenol red+10% csFBS per well of a 24 well plate were transfected with 0.25 μg ERE-LUC, 0.02 μg CMV-LUC (Renilla) and 25 ng of ER-α by lipofectamine. Twenty four hours after transfection, the cells were treated as indicated in the figure, harvested 48 hrs after transfection and were assayed for firefly and renilla luciferase.
Also 25 ng of ER-α (FIGS. 1, 5, and 9), 50 ng of ER-β (FIGS. 2, 6 and 10) or 12.5 ng of AR (FIG. 3) were introduced by lipofectamine. All the receptors were cloned from rat tissue into the PCR3.1 vector backbone. […] Cells were harvested 48 hrs after transfection, and assayed for firefly and Renilla luciferase activity.
Also 25 ng of ER-α), 50 ng of ER-β or 12.5 ng of AR were introduced by lipofectamine. All the receptors were cloned from rat tissue into the PCR3.1 vector backbone. […] Cells were harvested 48 hrs after transfection, and assayed for firefly and Renilla luciferase activity.

ER-β = molecular target: T2, ER-β (Rattus norvegicus, UniProt Q62986); assay: ER-β transactivation, ERE-LUC in COS or 293 cells; assay type: cell-based; set-up: % estardiol activity, ER-β: dose or concentration left out as unconfirmed; settings: for ER-β LUC expression, compound alone: COS or 293 cells
T2 construct: expressed in transfected cells; host or cells: COS or 293 cells
Method: FIG. 2: Effect of the indicated compounds on ER-β transactivation. COS or 293 cells plated in DME without phenol red+10% csFBS at 90,000 cells per well of a 24 well plate were transfected with 0.25 μg ERE-LUC, 0.02 μg CMV-LUC (Renilla) and 50 ng of ER-β by lipofectamine. Twenty four hours after transfection, the cells were treated as indicated in the figure, harvested 48 hrs after transfection and were assayed for firefly and renilla luciferase.
FIG. 6: Effect of the indicated compounds on ER-β transactivation. COS or 293 cells plated in DME without phenol red+10% csFBS at 90,000 cells per well of a 24 well plate were transfected with 0.25 μg ERE-LUC, 0.02 μg CMV-LUC (Renilla) and 50 ng of ER-β by lipofectamine. Twenty four hours after transfection, the cells were treated as indicated in the figure, harvested 48 hrs after transfection and assayed for firefly and renilla luciferase.
FIG. 10: Effect of the indicated compounds on ER-β transactivation. COS or 293 cells plated in DME+10% csFBS at 90,000 cells per well of a 24 well plate were transfected with 0.25 μg ERE-LUC, 0.02 μg CMV-LUC (Renilla) and 50 ng of ER-β by lipofectamine. Twenty four hours after transfection, the cells were treated as indicated in the figure, harvested 48 hrs after transfection and were assayed for firefly and renilla luciferase.
(§1) All the receptors were cloned from rat tissue into the PCR3.1 vector backbone. […] Cells were harvested 48 hrs after transfection, and assayed for firefly and Renilla luciferase activity.
as §1

[1] = Metabolic stability in human liver microsomes; settings: 1 μM substrate, 0.5 mg/mL microsomes
Method: Each substrate or reference control was dissolved at a concentration of 10 mM in DMSO, from which a 5 μM spiking solution was prepared by dilution in water. Substrates (1 μM) were incubated in the presence of human liver microsomes (Xenotech LLC, Kansas City Mo.) at 0.5 mg/mL fortified with an NADPH regenerating system at 37° C. and pH 7.4. The NADPH regenerating system consisted of glucose-6-phosphate dehydrogenase (1 units/mL) in 0.05M K2HPO4. Duplicate incubations were performed in 96-well polypropylene cluster tubes in a final volume of 250 μL per reaction. At 0, 2, 4, 6, 10, 30, and 60 minutes a stop solution (300 μL acetonitrile) was added to aliquots of the reaction mixture. Precipitated protein was removed by centrifugation (3000 rpm for 15 minutes) and the supernatants were transferred to clean 96-well plates for analysis.
The samples were injected onto a Phenomenex Luna hexylphenyl 50×2 mm i.d. 5 uM, column fitted with a guard column. An isocratic mobile phase consisting of 50% acetonitrile and 0.1% formic acid in water was used at a flow rate of 0.3 mL/min. The protonated molecular ion (M+H)^+ of the analyte was monitored by MDS/Sciex API 4000QTrap triple quadrupole mass spectrometer using electrospray positive mode ionization with a temperature of 500° C. and a spray voltage of 4000V. Total analysis time was 1.5 min per sample.
Metabolic stability was defined as the amount of substrate metabolized by the incubation with hepatic microsomes and expressed as a percentage of the initial amount of substrate (% remaining) based on peak area. Initial substrate concentration for each analyte was 1 μM. The initial peak area of each substrate was determined at time zero and metabolic stability was assessed based on the change in analyte peak area from time 0 min to a single fixed timepoint for each sample (2-60 min, representative timepoints are shown in Table 2 below).

[2] = ER beta agonists, read-out: EC50 (ER-β)

T2 sequence (Q62986 whole entry): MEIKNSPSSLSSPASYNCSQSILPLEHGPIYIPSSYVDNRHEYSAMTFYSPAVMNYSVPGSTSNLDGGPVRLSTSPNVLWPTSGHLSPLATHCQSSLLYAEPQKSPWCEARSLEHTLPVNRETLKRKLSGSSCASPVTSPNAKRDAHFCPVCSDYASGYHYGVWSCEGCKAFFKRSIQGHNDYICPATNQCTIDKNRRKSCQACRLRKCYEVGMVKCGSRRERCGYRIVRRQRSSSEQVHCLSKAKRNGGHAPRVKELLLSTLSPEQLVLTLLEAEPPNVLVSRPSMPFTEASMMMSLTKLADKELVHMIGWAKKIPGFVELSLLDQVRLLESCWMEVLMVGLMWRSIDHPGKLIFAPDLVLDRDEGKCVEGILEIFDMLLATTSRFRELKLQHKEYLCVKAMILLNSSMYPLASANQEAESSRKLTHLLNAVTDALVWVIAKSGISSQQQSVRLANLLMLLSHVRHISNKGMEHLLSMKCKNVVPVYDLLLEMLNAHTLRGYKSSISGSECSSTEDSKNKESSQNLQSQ

O=C(c1cccc(O)c1)N(c1ccc(O)cc1)c1ccc(O)cc1 [Compound 3b, 3-hydroxy-N-bis-(4-hydroxyphenyl)-benzamide]
EC50 (ER-α): 10 nM

O=C(c1ccccc1)N(c1ccccc1)c1ccc(O)cc1 [Compound 3g, N-(4-hydroxyphenyl)-N-phenyl-benzamide]
% estardiol activity, ER-α (ER-α): 62.5% | ER-β LUC expression, compound alone (ER-β): most potent in stimulating ER-β

O=C(c1ccc(O)cc1)N(c1ccccc1)c1ccc(O)cc1 [Compound 3i, 4-hydroxy-N-(4-hydroxyphenyl)-N-phenyl-benzamide]
% estardiol activity, ER-α (ER-α): 77.8% | ER-α activity (luciferase expression), compound alone (ER-α; COS or 293 cells): most potent in stimulating ER-α | ER-β LUC expression, compound alone (ER-β): most potent in stimulating ER-β

O=C(c1ccc(O)cc1)N(c1ccccc1)c1cccc(O)c1 [Compound 3j, 4-hydroxy-N-(3-hydroxyphenyl)-N-phenyl-benzamide]
% estardiol activity, ER-α (ER-α): 62%

O=C(c1ccc(F)cc1)N(c1ccc(O)cc1)c1ccc(O)cc1 [Compound 3k, N,N-bis(4-hydroxyphenyl)-4-fluoro-benzamide]
EC50 (ER-α): 12 nM | % Remaining 0 min ([1]; 0 min): 100% | % Remaining 10 min ([1]; 10 min): 119% | % Remaining 30 min ([1]; 30 min): 120% | % Remaining 60 min ([1]; 60 min): 94%

O=C(c1ccc(O)cc1)N(c1ccc(O)cc1)c1ccc(-c2ccccc2)cc1 [Compound 3v, N-biphenyl-4-yl-4-hydroxy-N-(4-hydroxyphenyl)-benzamide]
EC50 (ER-α): 22.4 nM

Cl.O=C(c1cccc(OCCN2CCCCC2)c1)N(c1ccccc1)c1ccccc1 [Compound 4d, N,N-diphenyl-[3-(2-piperidinylethoxy)]-benzamide hydrochloride]
% estardiol activity, ER-α (ER-α): 16.8% | % estardiol activity, ER-β (ER-β): 30.7%

Cc1ccc(C(=O)N(c2ccc(O)cc2)c2ccc(O)cc2)cc1C [Compound 10d, N,N-bis(4-hydroxyphenyl)-3,4-dimethylbenzamide]
% estardiol activity, ER-α (ER-α): 21.4% | EC50 (ER-β; [2]): 85 nM

O=C(c1ccc(O)c(F)c1)N(c1ccccc1)c1ccc(O)cc1 [Compound 10f, 3-fluoro-4-hydroxy-N-(4-hydroxyphenyl)-N-phenylbenzamide]
% estardiol activity, ER-α (ER-α): 85% | EC50 (ER-β): 42 nM

Cc1cccc(C(=O)N(c2ccc(O)cc2)c2ccc(O)cc2)c1C [Compound 10j, N,N-bis(4-hydroxyphenyl)-2,3-dimethylbenzamide]
IC50 (ER-β): 20 nM

CCCc1ccc(C(=O)N(c2ccc(O)cc2)c2ccc(O)cc2)cc1 [Compound 10l, N,N-bis(4-hydroxyphenyl)-4-propylbenzamide]
% estardiol activity, ER-α (ER-α): 32% | EC50 (ER-β): 27 nM

O=C(c1ccc(O)c(O)c1)N(c1ccc(O)cc1)c1ccc(O)cc1 [Compound 10m, 3,4-dihydroxy-N,N-bis(4-hydroxyphenyl)-benzamide]
IC50 (ER-α): < 10 nM

Cc1cc(C(=O)N(c2ccc(O)cc2)c2ccc(O)cc2)ccc1O [Compound 10n, 4-hydroxy-N,N-bis(4-hydroxyphenyl)-3-methylbenzamide]
IC50 (ER-β; ER beta antagonist, read-out: IC50 (ER-β)): 47 nM

CCCc1ccc(C(=O)N(c2ccc(O)cc2)c2ccc(OCCN3CCCCC3)cc2)cc1 [Compound 10o, N-(4-hydroxyphenyl)-N-(4-(2-(piperidin-1-yl)ethoxy)phenyl)-4-propylbenzamide]
% estardiol activity, ER-α (ER-α): 12% | inhibition of estradiol (E2) induced ER-α activity (luciferase expression) (ER-α; COS or 293 cells, with estrogen): inhibited estrogen stimulated luciferase expression

Cc1cccc(CN(c2ccc(O)cc2)c2ccc(O)cc2)c1C [Compound 10t, 4,4′-(2,3-dimethyl-benzylazanediyl)diphenol]
IC50 (ER-β): 17 nM

O=C(c1ccc(O)cc1)N(c1ccc(O)cc1)C1CCCCC1 [Compound 10w, N-cyclohexyl-4-hydroxy-N-(4-hydroxyphenyl)benzamide]
% estardiol activity, ER-α (ER-α): 21.9%

Oc1ccc(CN(c2ccc(O)cc2)c2ccc(F)cc2)cc1 [Compound 10x, 4-((4-fluorophenyl)(4-hydroxybenzyl)amino)phenol]
EC50 (ER-α): 16 nM

O=C(c1cccc2ccccc12)N(c1ccc(O)cc1)c1ccc(OCCN2CCCCC2)cc1 [Compound 11f, N-(4-hydroxyphenyl)-N-(4-(2-(piperidin-1-yl)ethoxy)phenyl)-1-naphthamide]
IC50 (ER-α): 69 nM

O=C(c1cccc(F)c1)N(c1ccc(O)cc1)c1ccc(OCCN2CCCCC2)cc1 [Compound 11g, 3-fluoro-N-(4-hydroxyphenyl)-N-(4-(2-(piperidin-1-yl)ethoxy)phenyl)benzamide]
IC50 (ER-α): 16 nM

CCCCCc1ccc(C(=O)N(c2ccc(O)cc2)c2ccc(O)cc2)cc1 [Compound 11p, N,N-bis(4-hydroxyphenyl)-4-pentylbenzamide]
EC50 (ER-β; [2]): < 10 nM
